Read-outs that look alike come from different tables or passages of the source.
Key:
[1] = system: Hepatitis A virus (HAV) strain HM-175; assay: Virucidal effect of peptides on HAV (residual infectivity by TCID50 titration on Frp3 cells); type: cell-based; details: for Viral Titre after Treatment: titration on Frp3 cells; for Viral Titre after Treatment / LRV (log reduction value): mean ± SD, triplicate
Source text: (§1) Murine norovirus strain 1 (MNV-1) was used as a surrogate for human norovirus (NoV). The virus was replicated in RAW 264.7 cells (murine macrophage cell line) cultured in Dulbecco’s modified Eagle’s medium (DMEM) supplemented with 1% glutamine, 1% non-essential amino acids, and 2% fetal bovine serum (FBS). Hepatitis A virus (HAV) strain HM-175 was replicated in Frp3 cells (non-human primate cell line derived from fetal kidney) cultured in minimum essential medium (MEM) with Earle’s salts supplemented with 1% glutamine, 2% non-essential amino acids, and 2% FBS. Both viruses were incubated in 5% CO2 at 37 °C. All cell culture media were provided by EuroClone (Milan, Italy). The viral suspensions were prepared by freeze and thaw lysis (1 cycle for MNV-1 and 3 cycles for HAV) of infected monolayers, clarified using low-speed centrifugation (800× g) to remove residual cell debris, then divided in aliquots, and stored at −80 °C until use.
(§2) Solutions 40 µM and 80 µM of each peptide of the panel (RiLK1, RiLK3, RiLK30, 1018-K6, MTP1, and AVP2) were chosen for the virucidal tests. HAV and MNV-1 were assayed at a concentration of 4.7 ± 0.2 log TCID50/mL and 4.5 ± 0.2 log TCID50/mL, respectively. The suspensions containing the peptides and viruses were incubated for 1 h at room temperature (RT,20 ± 2 °C) and 4 °C. These temperatures were chosen to simulate the use of sanitizing solutions in food production/processing environments. Residual viral infectivity was evaluated by titration (TCID50/mL) on Frp3 cells for HAV and on RAW 264.7 cells for MNV-1. Untreated HAV and MNV-1 suspensions and 40 µM and 80 µM AMP solutions, incubated at the same conditions, were used as controls. Each treatment condition was assayed in triplicate. For titration, 100 µL of serial tenfold dilutions of each sample were assayed in 24-well tissue culture plates containing 24–48 h cell monolayers and incubated for 1 h in 5% CO2 at 37 °C. After that, the wells were washed twice with 200 µL of PBS, and 500 µL of DMEM/MEM, supplemented with 2% of FBS, were was added to each well; MNV-1 and HAV incubations were carried for up to 6 days and 14 days, respectively, in 5% CO2 at 37 °C with daily visual inspection to determine the cytopathic effect. The virucidal efficacy of AMPs was estimated by comparing the titers of treated and untreated viral suspensions.
(§3) For each treatment, the average and standard deviation of the triplicate analyses were calculated. The virucidal effects of AMPs was assessed by calculating the log reduction value (LRV), i.e., the difference between the infectious titer (log-transformed) of untreated versus treated samples. The statistical significance of differences between treated and untreated samples was determined through one-way analysis of variance (ANOVA) with Bonferroni post hoc comparisons, with a significance level of p < 0.05 (GraphPad Prism v9.5.0, software San Diego, CA, USA).

[2] = system: Murine norovirus strain 1 (MNV-1); type: cell-based; details: for Viral Titre after Treatment: titration on RAW 264.7 cells; for Viral Titre after Treatment / LRV (log reduction value): mean ± SD, triplicate
Source text: as §1, §2, §3

[3] = HAV + peptide 40 µM, 1 h at RT (20 ± 2 °C)
[4] = HAV + peptide 80 µM, 1 h at RT (20 ± 2 °C)
[5] = MNV-1 + peptide 40 µM, 1 h at 4 °C
[6] = MNV-1 + peptide 40 µM, 1 h at RT (20 ± 2 °C)
[7] = MNV-1 + peptide 80 µM, 1 h at RT (20 ± 2 °C)

Substance: KLRWVKIWKK-NH2 [RiLK30, newly designed RiLK1 derivative, Arg residues exchanged with Lys and Lys3 with Arg]
- virucidal activity toward HAV (in words) ([1]; 40 and 80 µM, 4 °C and RT): no virucidal activity
- Viral Titre after Treatment ([1]; HAV 4.7 ± 0.2 log TCID50/mL + peptide 80 µM, 1 h at 4 °C): 4.3 ± 0.2 logTCID50/mL
- Viral Titre after Treatment ([1]; HAV + peptide 40 µM, 1 h at 4 °C): 4.3 ± 0.2 logTCID50/mL
- LRV (log reduction value) ([1]; HAV + peptide 40 µM, 1 h at 4 °C, untreated minus treated titre): 0.4 ± 0.4 logTCID50/mL
- LRV (log reduction value) [1, 3]: 0.6 ± 0.4 logTCID50/mL
- Viral Titre after Treatment [1, 3]: 4.1 ± 0.2 logTCID50/mL
- LRV (log reduction value) ([1]; HAV + peptide 80 µM, 1 h at 4 °C, untreated minus treated titre): 0.4 ± 0.4 logTCID50/mL
- LRV (log reduction value) [1, 4]: 0.6 ± 0.4 logTCID50/mL
- Viral Titre after Treatment [1, 4]: 4.1 ± 0.2 logTCID50/mL
- virucidal activity toward MNV-1 (in words) ([2]; 40 and 80 µM, 4 °C and RT): no virucidal activity
- Viral Titre after Treatment ([2]; MNV-1 4.5 ± 0.2 log TCID50/mL + peptide 80 µM, 1 h at 4 °C): 3.9 ± 0.2 logTCID50/mL
- LRV (log reduction value) [2, 5]: 0.2 ± 0.5 logTCID50/mL
- Viral Titre after Treatment [2, 5]: 4.3 ± 0.3 logTCID50/mL
- LRV (log reduction value) [2, 6]: 0 ± 0.4 logTCID50/mL
- Viral Titre after Treatment [2, 6]: 4.5 ± 0.2 logTCID50/mL
- LRV (log reduction value) ([2]; MNV-1 + peptide 80 µM, 1 h at 4 °C): 0.6 ± 0.4 logTCID50/mL
- LRV (log reduction value) [2, 7]: 0 ± 0.3 logTCID50/mL
- Viral Titre after Treatment [2, 7]: 4.5 ± 0.1 logTCID50/mL

From article PMC11124387, “A Reliable Multifaceted Solution against Foodborne Viral Infections: The Case of RiLK1 Decapeptide” (Molecules, 2024)
